In brackets after ≈: the same amount, converted by molar mass. Several values for one entry are separate records, joined by “and”; a condition that tells them apart may be missing. Equal entries are not always repeated.
Key:
Assay in all cases: ≥ marks a high value that may be exact or a test limit, other limits are often not marked, values filed in µg/mL are converted to µM
Escherichia coli D31 = test system: Escherichia coli D31
[1] = test system: Listeria fleischmannii DSM 24998
Listeria grayi DSM 20601 = test system: Listeria grayi DSM 20601
[2] = test system: Listeria monocytogenes DSM 20600
[3] = test system: Micrococcus luteus DSM 20030
[4] = test system: Staphylococcus aureus DSM 2569
[5] = test system: Candida albicans ATCC 36232
[6] = test system: Escherichia coli ATCC 2592
[7] = test system: Micrococcus luteus ATCC 9341
[8] = test system: Pseudomonas aeruginosa ATCC 9027
[9] = test system: Staphylococcus aureus 1550
[10] = test system: Staphylococcus aureus ATCC 6538
[11] = test system: Streptococcus mutans UA159
[12] = test system: Streptococcus sanguinis ATCC 10556
[13] = test system: Streptococcus sobrinus ATCC 6715
[14] = test system: Acinetobacter baumannii KCTC 2508
Acinetobacter baumannii = test system: Acinetobacter baumannii
[15] = test system: Bacillus cereus KCTC 1012
[16] = test system: Bacillus subtilis KCTC 2217
[17] = test system: Escherichia coli ATCC 25922
Escherichia coli = test system: Escherichia coli
[18] = test system: Klebsiella pneumoniae KCTC 2208
Klebsiella pneumoniae = test system: Klebsiella pneumoniae
[19] = test system: Staphylococcus aureus ATCC 25923
Staphylococcus aureus = test system: Staphylococcus aureus
[20] = test system: Staphylococcus epidermidis
[21] = test system: Staphylococcus saprophyticus
Streptococcus pyogenes = test system: Streptococcus pyogenes
Streptococcus sp. = test system: Streptococcus sp.

Compound: CC[C@H](C)[C@H](NC(=O)CNC(=O)[C@H](CO)NC(=O)[C@H](CC(C)C)NC(=O)[C@H](CC(C)C)NC(=O)[C@H](C)NC(=O)[C@H](CO)NC(=O)[C@H](Cc1ccccc1)NC(=O)[C@@H](N)Cc1ccccc1)C(=O)N[C@@H](CCCCN)C(=O)N[C@@H](CO)C(=O)N[C@@H](CC(C)C)C(=O)N[C@@H](Cc1ccccc1)C(N)=O [FFSALLSGIKSLF]
- MIC (Escherichia coli D31): 8 µM (≈ 11.4 µg/mL)
- MIC [1]: 4 µM (≈ 5.71 µg/mL)
- MIC (Listeria grayi DSM 20601): 15 µM (≈ 21.4 µg/mL)
- MIC [2]: 8 µM (≈ 11.4 µg/mL)
- MIC [3]: 8 µM (≈ 11.4 µg/mL)
- MIC [4]: 15 µM (≈ 21.4 µg/mL)

Compound: CC(C)[C@H](NC(=O)[C@H](CCCCN)NC(=O)[C@@H](NC(=O)[C@H](CCCCN)NC(=O)[C@H](Cc1ccccc1)NC(=O)[C@H](CCCCN)NC(=O)[C@@H](NC(=O)[C@H](CCCCN)NC(=O)[C@@H](N)Cc1ccccc1)C(C)C)C(C)C)C(=O)N[C@@H](CCCCN)C(=O)O [FKVKFKVKVK]
- MIC [5]: 5 µM and 8 µM
- MIC [6]: 10 µM (≈ 12.5 µg/mL)
- MIC [7]: 4 µM (≈ 5 µg/mL)
- MIC [8]: 4.8 µM (≈ 6 µg/mL)
- MIC [9]: 8.8 µM (≈ 11 µg/mL)
- MIC [10]: 7.2 µM (≈ 9 µg/mL)

Compound: CC(C)[C@H](NC(=O)[C@H](CCCN=C(N)N)NC(=O)[C@H](C)NC(=O)[C@H](C)NC(=O)[C@H](CCCCN)NC(=O)[C@H](CCCCN)NC(=O)[C@H](Cc1ccccc1)NC(=O)[C@H](Cc1ccccc1)NC(=O)[C@H](CCCN=C(N)N)NC(=O)CNC(=O)[C@H](Cc1c[nH]c2ccccc12)NC(=O)CN)C(=O)NCC(=O)N[C@@H](CCCCN)C(=O)N[C@@H](CCCN=C(N)N)C(=O)N[C@H](C(=O)NCC(=O)N[C@@H](CCCCN)C(=O)O)C(C)C [GWGRFFKKAARVGKRVGK]
- MIC [11]: ≥ 250 µM
- MIC [12]: ≥ 250 µM
- MIC [13]: ≥ 250 µM

Compound: CC[C@H](C)[C@H](NC(=O)[C@H](Cc1ccccc1)NC(=O)[C@H](CCCCN)NC(=O)[C@H](CC(C)C)NC(=O)[C@H](C)NC(=O)[C@H](CO)NC(=O)[C@H](CC(C)C)NC(=O)[C@H](Cc1c[nH]c2ccccc12)NC(=O)[C@@H](N)C(C)C)C(=O)NCC(=O)N[C@@H](CCCCN)C(=O)N[C@@H](Cc1cnc[nH]1)C(=O)N[C@@H](CC(C)C)C(=O)N[C@@H](C)C(=O)N[C@@H](CCCCN)C(=O)N[C@@H](Cc1cnc[nH]1)C(=O)N[C@@H](CCC(N)=O)C(=O)N[C@@H](CC(C)C)C(=O)N[C@@H](CO)C(=O)N[C@@H](CCCCN)C(=O)N[C@@H](CC(C)C)C(N)=O [VWLSALKFIGKHLAKHQLSKL]
- MIC [14]: 2 µM (≈ 4.83 µg/mL)
- MIC (Acinetobacter baumannii): 4.42 µM and 12.5 µM
- MIC [15]: 2 µM (≈ 4.83 µg/mL)
- MIC [16]: 1 µM (≈ 2.42 µg/mL)
- MIC [17]: 1 µM (≈ 2.42 µg/mL)
- MIC (Escherichia coli): 12.5 µM (≈ 30.2 µg/mL)
- MIC [18]: 2 µM (≈ 4.83 µg/mL)
- MIC (Klebsiella pneumoniae): 50 µM (≈ 121 µg/mL)
- MIC [19]: 1 µM and > 0.5 µM
- MIC (Staphylococcus aureus): 3.1 µM and 1.41 µM
- MIC [20]: 3.1 µM (≈ 7.49 µg/mL)
- MIC [21]: 3.1 µM (≈ 7.49 µg/mL)
- MIC (Streptococcus pyogenes): ≥ 50 µM
- MIC (Streptococcus sp.): 3.1 µM (≈ 7.49 µg/mL)

Source: DBAASP
